Measurements published in patent EP0200565A2, “Method for production of peroxidase” (NISSIN FOOD PRODUCTS CO., LTD., priority 1985, dated 1986).

system: peroxidase; test: Activity of the isolated peroxidase towards various hydrogen donors; type: biochemical, Coprinus cinereus IFO 30116; settings: not given
Procedure: Its action is shown by the followina reaction formula: [drawing 2] where AH2 is a hydrogen donor, and A is the oxidized hydrogen donor.
The enzyme was assayed for activity with respect to a variety of hydrogen donors.
Values snown in Taoie 2 are relative ones with that of phenol set at 100%.

| Molecule | Strength of Action [%] |
| --- | --- |
| Cc1cc(-c2ccc(N)c(C)c2)ccc1N [o-tolidine] | 5400 |

same assay, conditions: relative values with that of phenol set at 100%; peroxidase of Coprinus cinereus IFO 30116

| Molecule | Strength of Action |
| --- | --- |
| Oc1ccccc1O [Catechol] | 460% |
| COc1ccccc1O [Guaiacol] | 200% |
| Oc1ccc(O)cc1 [Hydroquinone] | 57% |
| Oc1ccccc1 [Phenol] | 100 (%) |
| Oc1cccc(O)c1 [Resorcinol] | 0% |
| COc1cc(-c2ccc(N)c(OC)c2)ccc1N [o-dianisidine] | 5400% |
| Oc1cccc2ccccc12 [α-naphthol] | 1200% |
| δ-hydroquinon | 57% |
